The target in one experiment is T1, P99 AmpC β-lactamase (Enterobacter cloacae, UniProt P05364).
T1 construct: The β-lactamases were extracted by four cycles of freezing and thawing followed by centrifugation; endogenous in cells; host or cells: Enterobacter cloacae cells containing P99 (crude freeze-thaw extract)
In words: biochemical. It counts as biochemical. The protocol: (§1) Isolation of β-lactamases. Crude β-lactamase extracts were prepared from 20 ml overnight cultures with shaking. Escherichia coli cells containing SHV-5 or CTXM-15 and Enterobacter cloacae cells containing P99 were further diluted 10-fold and grown to mid-log phase (OD at 600 nm, 0.5-0.8) in Mueller-Hinton II (MH-II) broth at 37° C. The cells were pelleted at 5000 g, washed and resuspended in 2 mL PBS pH 7.0. The β-lactamases were extracted by four cycles of freezing and thawing followed by centrifugation. β-lactamase activity in the extracts was measured with the chromogenic cephalosporin nitrocefin. The amount of protein in each β-lactamase preparation was determined by the bicinchoninic acid (BCA) assay.
(§2) β-lactamase Inhibition. To determine the level of inhibition of β-lactamase enzymes, compounds were diluted in PBS at pH 7.0 to yield concentrations between 100 and 0.005 μM in microtiter plates. An equal volume of diluted enzyme stock was added, and the plates were incubated at 37° C. for 10 min. Nitrocefin solution was then dispensed as substrate into each well at a final concentration of 100 μM, and the plates were immediately read with the kinetic program at 486 nm for 10 min on the SPECTRAMAX® Plus^384 (high-throughput microplate spectrophotometer; Molecular Devices Corp., Sunnyvale, Calif.). Maximum rates of metabolism were then compared to those in control wells (without inhibitors), and percentages of enzyme inhibition were calculated for each concentration of inhibitor. The concentration of inhibitor needed to reduce the initial rate of hydrolysis of substrate by 50% (IC50) was calculated as the residual activity of β-lactamase at 486 nm using the SoftMax Pro 5.0 software (Molecular Devices Corp.).

A further experiment addresses T2, CTXM-15 β-lactamase (Escherichia coli, UniProt Q9EXV5).
T2 construct: The β-lactamases were extracted by four cycles of freezing and thawing followed by centrifugation; endogenous in cells; host or cells: Escherichia coli cells containing CTXM-15 (crude freeze-thaw extract)
In words: biochemical. It counts as biochemical. The following applies: crude enzyme extract, 10 min preincubation at 37° C., nitrocefin 100 μM, PBS pH 7.0; read-out: CTXM-15 IC50 Range. The protocol: as §1, §2

Another experiment has as its target T3, SHV-5 β-lactamase (Klebsiella pneumoniae, UniProt P0A3M1).
T3 construct: The β-lactamases were extracted by four cycles of freezing and thawing followed by centrifugation; endogenous in cells; host or cells: Escherichia coli cells containing SHV-5 (crude freeze-thaw extract)
In words: biochemical. It counts as biochemical, Escherichia coli. The procedure: as §1, §2

Experiment [1] deals with E. cloacae expressing the Class C P99+. It counts as cell-based. The following applies: in the presence of fixed 8 μg/mL ceftazidime; CAMHB, 16-20 hours at 37° C. The source says:
(§3) To determine the ability of test compounds to potentiate the inhibition of the growth of bacterial strains producing beta-lactamase enzymes, classic cell based screening assays were employed. Four bacteria strains producing beta-lactamase enzymes were used: E. coli expressing the Class A Extended Spectrum Beta-Lactamase (ESBL) CTX-M-15, E. coli expressing the Class A ESBL SHV-5, E. cloacae expressing the Class C P99+, and K. pneumoniae expressing the Class A carbapenemase KPC-2. In order to evaluate the ability of test compounds to inhibit beta-lactamase activity, Applicants used a modification of the broth microdilution assay. The assay was conducted in Cation Adjusted Mueller Hinton Broth (CAMHB, BD #212322, BD Diagnostic Systems, Sparks, Md.). Bacteria strains were grown for 3-5 hours in CAMBH broth. All four strains were grown in presence of 50 μg/mL ampicillin to ensure resistance is maintained. In the meantime, test compounds were diluted in DMSO to a 0.1 mg/mL stock. The compounds were added to a microtiter plate and were diluted in 2-fold serial dilutions in CAMHB in a final concentration range of 32 μg/mL to 0.25 μg/mL. An overlay of CAMHB containing a cephalosporin was added to the compounds at a final static concentration of 8 μg/mL. […] Each of these compound plates are made in quadruplicate, one for each bacteria strain. In addition to the titration of test compounds the MICs of a panel of cephalosporins is also tested to ensure the strains are behaving consistently from test to test. Once the test compound and cephalosporin are added the plates can be inoculated. Inocula are conducted according to CLSI broth microdilution method. After inoculation the plates are incubated for 16-20 hours at 37° C. then the Minimal Inhibitory Concentration (MIC) of the test compound is determined visually.
(§4) Using the methodology described above, examples of the current invention were evaluated for their ability to inhibit the growth of β-lactamase producing bacteria in the presence of a β-lactam antibiotic.

Experiment [2] relates to E. coli expressing the Class A ESBL CTX-M-15. It is filed as cell-based. The following applies: in the presence of fixed 8 μg/mL cefotaxime; CAMHB, 16-20 hours at 37° C.
Description: as §3, §4

Experiment [3] relates to E. coli expressing the Class A ESBL SHV-5. It is filed as cell-based. The following applies: in the presence of fixed 8 μg/mL ceftazidime; CAMHB, 16-20 hours at 37° C.
Description: as §3, §4

Where [4] appears, read: crude enzyme extract, 10 min preincubation at 37° C., nitrocefin 100 μM, PBS pH 7.0, read-out: P99 AmpC IC50 Range.
The mark [5] stands for this setting: crude enzyme extract, 10 min preincubation at 37° C., nitrocefin 100 μM, PBS pH 7.0, read-out: SHV-5 IC50 Range.

Where a name gives a salt, the structure may show the parent alone. Read-outs that look alike come from different tables or passages of the source.

T2 sequence (Q9EXV5 29-291): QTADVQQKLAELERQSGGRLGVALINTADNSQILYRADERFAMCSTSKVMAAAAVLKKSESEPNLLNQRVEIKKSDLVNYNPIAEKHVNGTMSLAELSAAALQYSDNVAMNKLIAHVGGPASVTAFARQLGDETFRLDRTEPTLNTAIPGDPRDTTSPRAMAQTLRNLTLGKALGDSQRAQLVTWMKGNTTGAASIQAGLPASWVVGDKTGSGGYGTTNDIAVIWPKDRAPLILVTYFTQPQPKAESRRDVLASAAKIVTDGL
T3 sequence (P0A3M1 22-286): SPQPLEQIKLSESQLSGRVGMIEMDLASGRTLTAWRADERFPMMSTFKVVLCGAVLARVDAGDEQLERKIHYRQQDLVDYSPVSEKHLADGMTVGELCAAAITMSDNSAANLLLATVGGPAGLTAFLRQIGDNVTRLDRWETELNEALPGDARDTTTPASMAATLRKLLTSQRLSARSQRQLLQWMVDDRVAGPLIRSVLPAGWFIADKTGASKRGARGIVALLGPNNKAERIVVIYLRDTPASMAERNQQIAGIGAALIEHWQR
T1 sequence (P05364 21-381): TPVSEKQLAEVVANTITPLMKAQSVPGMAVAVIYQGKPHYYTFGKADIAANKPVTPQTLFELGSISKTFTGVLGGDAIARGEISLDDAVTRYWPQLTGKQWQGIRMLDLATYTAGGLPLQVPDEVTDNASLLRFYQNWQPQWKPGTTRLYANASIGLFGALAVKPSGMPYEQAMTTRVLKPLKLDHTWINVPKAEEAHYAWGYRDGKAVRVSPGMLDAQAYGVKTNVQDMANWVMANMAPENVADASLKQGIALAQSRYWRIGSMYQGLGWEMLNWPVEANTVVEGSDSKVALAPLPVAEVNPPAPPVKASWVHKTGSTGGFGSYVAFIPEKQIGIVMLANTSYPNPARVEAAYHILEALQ

The IC50 is the concentration that inhibits the measured activity by half. In the case of `Cc1ccc(C(=O)O)cc1C[C@H](NC(=O)Cc1cccs1)B(O)O` [Example 13, (1R)-1-(2-thiophene-2-yl-acetylamino)-2-(5-carboxy-2-methylphenyl)ethyl-1-boronic acid], the values for the IC50 on P99 AmpC β-lactamase (setting [4]), at CTXM-15 β-lactamase and at SHV-5 β-lactamase (setting [5]) were above 1000 nM, 100 to 1000 nM and below 100 nM, respectively.

With `Cn1c(CC(=O)N[C@@H](Cc2cccc(C(=O)O)c2)B(O)O)cc2ccccc21` [Example 14], the IC50 on P99 AmpC β-lactamase (setting [4]) is 100 to 1000 nM; at CTXM-15 β-lactamase, 100 to 1000 nM; at SHV-5 β-lactamase (setting [5]) it was below 100 nM.

As for `O=C(Cc1ccc(Cl)cc1)N[C@@H](Cc1cccc(C(=O)O)c1)B(O)O` [Example 19, (1R)-1-(4-Chlorophenylacetylamino)-2-(3-carboxyphenyl)ethyl-1-boronic acid], the IC50 was 100 to 1000 nM at P99 AmpC β-lactamase (setting [4]), below 100 nM at CTXM-15 β-lactamase and below 100 nM at SHV-5 β-lactamase (setting [5]).

For the compound `O=C(Cc1ccc2ccccc2c1)N[C@@H](Cc1cccc(C(=O)O)c1)B(O)O` [Example 23, (1R)-1-(2-naphthalen-2-yl-acetylamino)-2-(3-carboxyphenyl)ethyl-1-boronic acid], the IC50 on P99 AmpC β-lactamase (setting [4]), at CTXM-15 β-lactamase and on SHV-5 β-lactamase (setting [5]) was below 100 nM in each case.

Regarding `O=C(Cc1ccccc1Cl)N[C@@H](Cc1cccc(C(=O)O)c1)B(O)O` [Example 24, (1R)-1-(2-Chlorophenylacetylamino)-2-(3-carboxyphenyl)ethyl-1-boronic acid], the IC50 on P99 AmpC β-lactamase (setting [4]) was 100 to 1000 nM; on CTXM-15 β-lactamase, above 1000 nM; at SHV-5 β-lactamase (setting [5]) it was below 100 nM.

For the compound `COc1ccc(CC(=O)N[C@@H](Cc2cccc(C(=O)O)c2)B(O)O)cc1` [Example 25, (1R)-1-(4-Methoxyphenylacetylamino)-2-(3-carboxyphenyl)ethyl-1-boronic acid], the values for the IC50 at P99 AmpC β-lactamase (setting [4]), on CTXM-15 β-lactamase and at SHV-5 β-lactamase (setting [5]) were 100 to 1000 nM, below 100 nM and below 100 nM, respectively.

With `COc1ccc(CC(=O)N[C@@H](Cc2cccc(C(=O)O)c2)B(O)O)c(Br)c1` [Example 26, (1R)-1-(2-Bromo-4-methoxyphenylacetylamino)-2-(3-carboxyphenyl)ethyl-1-boronic acid], the IC50 on P99 AmpC β-lactamase (setting [4]), at CTXM-15 β-lactamase and on SHV-5 β-lactamase (setting [5]) was 100 to 1000 nM throughout.

Turning to `O=C(O)COc1cccc(CC(=O)N[C@@H](Cc2cccc(C(=O)O)c2)B(O)O)c1` [Example 27, (1R)-1-(2-(3-carboxymethoxy)phenylacetylamino)-2-(3-carboxyphenyl)ethyl-1-boronic acid], the IC50 on P99 AmpC β-lactamase (setting [4]) is 100 to 1000 nM; on CTXM-15 β-lactamase, 100 to 1000 nM; on SHV-5 β-lactamase (setting [5]), below 100 nM.

For `CN1CCC(Oc2cccc(CC(=O)NC(Cc3cccc(C(=O)O)c3)B(O)O)c2)C1` [Example 28, (1R)-1-(2-[3-(1-methyl-pyrrolidin-3-yloxy)-phenyl]-acetylamino)-2-(3-carboxyphenyl)ethyl-1-boronic acid], the IC50 was below 100 nM against P99 AmpC β-lactamase, 100 to 1000 nM at CTXM-15 β-lactamase and 100 to 1000 nM against SHV-5 β-lactamase.

Take `NCCCOc1cccc(CC(=O)N[C@@H](Cc2cccc(C(=O)O)c2)B(O)O)c1` [Example 31, (1R)-1-{2-[3-(3-Amino-propyloxy)-phenyl]-acetylamino}-2-(3-carboxyphenyl)ethyl-1-boronic acid hydrochloride]: the 50% inhibitory concentration (IC50) at P99 AmpC β-lactamase (setting [4]), on CTXM-15 β-lactamase and at SHV-5 β-lactamase (setting [5]) was 100 to 1000 nM in each case.

With `CC(CO)Oc1cccc(CC(=O)N[C@@H](Cc2cccc(C(=O)O)c2)B(O)O)c1` (stereo partly drawn) [Example 32, (1R)-1-{2-[3-(2-Hydroxy-1-methyl-ethoxy)-phenyl]-acetylamino}-2-(3-carboxyphenyl)ethyl-1-boronic acid], the IC50 was 100 to 1000 nM on P99 AmpC β-lactamase (setting [4]), below 100 nM on CTXM-15 β-lactamase and below 100 nM at SHV-5 β-lactamase (setting [5]).

`NC(=O)COc1cccc(CC(=O)N[C@@H](Cc2cccc(C(=O)O)c2)B(O)O)c1` [Example 33, (1R)-1-[2-(3-Carbamoylmethoxy-phenyl)-acetylamino}-2-(3-carboxyphenyl)ethyl-1-boronic acid]: the IC50 was 100 to 1000 nM at P99 AmpC β-lactamase (setting [4]), below 100 nM on CTXM-15 β-lactamase and below 100 nM on SHV-5 β-lactamase (setting [5]). The “MIC of example compound, E. cloacae P99+ + 8 μg/mL CAZ” value (“MIC … E. cloacae P99+ + 8 μg/mL CAZ” for short) in experiment [1] is “B (B represents an MIC between 2 and 32 μg/mL)”. Also, the “MIC of example compound, E. coli CTXM-15 + 8 μg/mL TAX” value (from here on “MIC … E. coli CTXM-15 + 8 μg/mL TAX”) in experiment [2] is “B (B represents an MIC between 2 and 32 μg/mL)”. Moreover, the “MIC of example compound, E. coli SHV-5 + 8 μg/mL CAZ” value (from here on “MIC … E. coli SHV-5 + 8 μg/mL CAZ”) in experiment [3] was “B (B represents an MIC between 2 and 32 μg/mL)”.

On to `O=C(Cc1ccc(O)cc1)N[C@@H](Cc1cccc(C(=O)O)c1)B(O)O` [Example 34, (1R)-1-(4-Hydroxyphenylacetylamino)-2-(3-carboxyphenyl)ethyl-1-boronic acid], for which the results for the IC50 at P99 AmpC β-lactamase (setting [4]), on CTXM-15 β-lactamase and at SHV-5 β-lactamase (setting [5]) were below 100 nM, 100 to 1000 nM and below 100 nM, respectively. In addition, in experiment [1], the “MIC … E. cloacae P99+ + 8 μg/mL CAZ” value is “B (B represents an MIC between 2 and 32 μg/mL)”. The “MIC … E. coli CTXM-15 + 8 μg/mL TAX” value in experiment [2] is “B (B represents an MIC between 2 and 32 μg/mL)”. The “MIC … E. coli SHV-5 + 8 μg/mL CAZ” value in experiment [3] was “B (B represents an MIC between 2 and 32 μg/mL)”.

For `O=C(CCCc1cccs1)N[C@@H](Cc1cccc(C(=O)O)c1)B(O)O` [Example 35, (1R)-1-(4-Thiophen-2-yl-butyrylamino)-2-(3-carboxyphenyl)ethyl-1-boronic acid], the IC50 was above 1000 nM at P99 AmpC β-lactamase (setting [4]), 100 to 1000 nM on CTXM-15 β-lactamase and 100 to 1000 nM on SHV-5 β-lactamase (setting [5]).

Consider `O=C(CCC(=O)C1CC1)N[C@@H](Cc1cccc(C(=O)O)c1)B(O)O` [Example 36, (1R)-1-(4-Cyclopropyl-4-oxo-butyrylamino)-2-(3-carboxyphenyl)ethyl-1-boronic acid], for which the IC50 at P99 AmpC β-lactamase (setting [4]) and at SHV-5 β-lactamase (setting [5]) was above 1000 nM throughout. For the same compound, in experiment [1], the “MIC … E. cloacae P99+ + 8 μg/mL CAZ” value was “B (B represents an MIC between 2 and 32 μg/mL)”. Besides, in experiment [2], the “MIC … E. coli CTXM-15 + 8 μg/mL TAX” value was “B (B represents an MIC between 2 and 32 μg/mL)”. For the same compound, in experiment [3], the “MIC … E. coli SHV-5 + 8 μg/mL CAZ” value is “B (B represents an MIC between 2 and 32 μg/mL)”.

Take `O=C(CCC(=NO)c1cccs1)N[C@@H](Cc1cccc(C(=O)O)c1)B(O)O` [Example 37, (1R)-1-(4-Hydroxyimino-4-thiophen-2-yl-butyrylamino)-2-(3-carboxyphenyl)ethyl-1-boronic acid]: the IC50 on P99 AmpC β-lactamase (setting [4]) was 100 to 1000 nM; at CTXM-15 β-lactamase, 100 to 1000 nM; at SHV-5 β-lactamase (setting [5]) it was above 1000 nM.

For the compound `COc1ccc(C(=O)CCC(=O)N[C@@H](Cc2cccc(C(=O)O)c2)B(O)O)cc1` [Example 38, (1R)-1-(4-(4-Methoxy-phenyl)-4-oxo-butyrylamino)-2-(3-carboxyphenyl)ethyl-1-boronic acid], the IC50 at P99 AmpC β-lactamase (setting [4]), at CTXM-15 β-lactamase and on SHV-5 β-lactamase (setting [5]) was 100 to 1000 nM in each case.

Source of the values: patent US20100317621A1, “BETA-LACTAMASE INHIBITORS” (priority 2007, published 2010).
